Here are results for 22 compounds from PubChem BioAssay AID624303 (The Scripps Research Institute Molecular Screening Center, 2012).

In general, inhibition refers to the share of the control response that was lost under treatment.

Activity calls are given as the source filed them.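 The calls were made as follows: active = inhibition of at least 2%; inactive = inhibition below 2%.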

Tyrosine-protein kinase ABL1 (Homo sapiens), sequence (P00519 whole entry, looked up): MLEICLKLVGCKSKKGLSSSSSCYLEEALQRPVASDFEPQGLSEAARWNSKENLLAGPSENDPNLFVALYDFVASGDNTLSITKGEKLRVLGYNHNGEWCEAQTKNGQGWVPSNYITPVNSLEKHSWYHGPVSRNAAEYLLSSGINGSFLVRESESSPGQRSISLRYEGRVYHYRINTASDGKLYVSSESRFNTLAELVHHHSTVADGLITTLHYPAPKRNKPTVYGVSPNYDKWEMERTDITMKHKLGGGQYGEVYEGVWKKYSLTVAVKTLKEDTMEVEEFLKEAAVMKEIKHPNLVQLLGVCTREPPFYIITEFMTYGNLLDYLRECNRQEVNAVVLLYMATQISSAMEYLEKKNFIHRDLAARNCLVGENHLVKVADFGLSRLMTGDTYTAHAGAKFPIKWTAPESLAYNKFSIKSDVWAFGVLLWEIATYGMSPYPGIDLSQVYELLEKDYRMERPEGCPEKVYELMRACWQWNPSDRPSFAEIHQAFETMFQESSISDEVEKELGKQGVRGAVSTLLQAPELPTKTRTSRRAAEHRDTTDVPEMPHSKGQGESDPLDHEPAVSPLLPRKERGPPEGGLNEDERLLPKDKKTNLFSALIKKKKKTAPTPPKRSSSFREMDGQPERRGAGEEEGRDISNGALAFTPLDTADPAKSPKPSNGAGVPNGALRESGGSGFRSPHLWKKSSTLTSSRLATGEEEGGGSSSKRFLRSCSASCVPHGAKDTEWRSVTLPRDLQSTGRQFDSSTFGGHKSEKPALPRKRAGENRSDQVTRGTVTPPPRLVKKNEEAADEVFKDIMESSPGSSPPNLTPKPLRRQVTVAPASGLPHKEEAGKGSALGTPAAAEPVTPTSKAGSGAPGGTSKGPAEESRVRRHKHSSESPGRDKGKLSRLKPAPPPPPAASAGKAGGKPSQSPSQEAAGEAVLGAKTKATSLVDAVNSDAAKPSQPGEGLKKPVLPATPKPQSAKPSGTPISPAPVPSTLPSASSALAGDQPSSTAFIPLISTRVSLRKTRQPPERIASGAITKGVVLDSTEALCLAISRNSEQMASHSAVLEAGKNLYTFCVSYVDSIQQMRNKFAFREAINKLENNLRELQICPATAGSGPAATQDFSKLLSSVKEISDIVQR

The experiment addresses Tyrosine-protein kinase ABL1 (Homo sapiens) (UniProt P00519). The experiment in a line: ABL1 kinase inhibition, RIN1-independent, late-stage follow-up, RIN1-ABL interaction inhibitor project, biochemical, purified CRK substrate, chemiluminescent immunoblot, powders, round 1 (AID 624303). The following applies: purified ABL1 phosphorylating CRK, anti-pTyr chemiluminescence blot; at 10 µM; active compounds read high. A general note: In western blotting, separated proteins are transferred to a membrane and probed.
`O=C(Cc1ccc(NC(=O)C2CCN(C(=O)C3CCCCC3)CC2)cc1)Nc1ccc(C(=O)N2CCOCC2)cc1`: the inhibition was 0% (inactive). On to `O=c1cc(OCc2ccccc2)cc[nH]1`, for which the inhibition is 0% (inactive). As to `COc1ccc(C(=O)N2CCC(C(=O)Nc3ccc(CC(=O)Nc4ccc(C(=O)N(C)C5CC5)cc4)cc3)CC2)cc1`, the inhibition was 0% (inactive).

With `COc1ccc(CCNc2cc(=O)[nH]c(N)n2)cc1`, the inhibition is 0% (inactive). For the compound `CCOC(=O)N1CCN(C(=O)Nc2ccc(NC(=O)N3CCN(C(=O)OCC)CC3)cc2)CC1`, the inhibition was 0% (inactive). With `COc1cccc(CSc2nnc(CSc3nc4nc(C)cc(C)n4n3)s2)c1`, the inhibition is 0% (inactive). The figure for `O=C(Cc1ccc(NC(=O)C2CCN(C(=O)c3ccccc3)CC2)cc1)Nc1ccc(C(=O)N2CCOCC2)cc1` is 0% (inactive). Take `CN(CCc1ccccc1)C(=O)c1ccc(NC(=O)Cc2ccc(NC(=O)C3CCN(C(=O)C4CCCC4)CC3)cc2)cc1`: the inhibition is 0% (inactive). Regarding `CN(C(=O)c1ccc(NC(=O)Cc2ccc(NC(=O)C3CCN(C(=O)c4cccc(F)c4)CC3)cc2)cc1)C1CC1`, the inhibition was 0% (inactive).

For `CN(C(=O)c1ccc(NC(=O)Cc2ccc(NC(=O)C3CCN(C(=O)c4ccc(F)cc4)CC3)cc2)cc1)C1CC1`, the inhibition was 0% (inactive). Take `CN(CCc1ccccc1)C(=O)c1ccc(NC(=O)Cc2ccc(NC(=O)C3CCN(C(=O)c4ccccc4)CC3)cc2)cc1`: the inhibition was 0% (inactive). For `CC(=O)Nc1ccc(NC(=O)C2CCN(C(=O)c3cccs3)CC2)cc1`, the inhibition was 0% (inactive). Consider `Cn1c(=O)c2c(nc(-n3ccnc3)n2Cc2ccc(Cl)cc2Cl)n(C)c1=O`, for which the inhibition is 0% (inactive). With `CSc1ccccc1OCc1cc(C(=O)N2CCNC(=O)C2)no1`, the inhibition is 0% (inactive). As to `CCOC(=O)N1CCC(NC(=O)CCc2nc(C3=CCN(C)CC3)no2)CC1`, the inhibition was 0% (inactive). Then `N#Cc1ccccc1Sc1ccccc1C(=O)NCC(c1ccco1)N1CCCC1` (configuration not stated), with 0% (inactive); and `COc1ccc2oc(C(=O)NCC(c3ccco3)N(C)C)c(C)c2c1` (configuration not stated), with 0% (inactive).

On to `CN(Cc1c(F)cccc1Cl)C(=O)CNC(=O)c1ccc2c(c1)OCO2`, for which the inhibition was 0% (inactive). Consider `O=C(Cc1ccc(NC(=O)C2CCN(C(=O)C3CCCC3)CC2)cc1)Nc1ccc(C(=O)N2CCOCC2)cc1`, for which the inhibition is 0% (inactive). With `O=C(c1cc(COc2cccc3cccnc23)on1)N1CCC[C@H]1CO`, the inhibition was 0% (inactive). The figure for `CN(C(=O)c1ccc(NC(=O)Cc2ccc(NC(=O)C3CCN(C(=O)c4ccccc4)CC3)cc2)cc1)C1CC1` is 0% (inactive); for `Cc1c(C(=O)NCC(c2ccco2)N(C)C)oc2c(Cl)cccc12` (configuration not stated) it is 0% (inactive).
